Source: patent US9346809B2 (LEO PHARMA A/S, priority 2009, dated 2016)
Read-outs that look alike come from different tables or passages of the source.

Key:
Type in all cases: biochemical
[1] = molecular target: T1, TYK2 (aa 871-1187, catalytic domain, GST-tag) (Homo sapiens, UniProt P29597); assay: JAK kinase assay (HTRF, phosphorylation of TK substrate-biotin), TYK2; settings: ATP at Km (13 μM)
T1 construct: JAK1 (aa 850-1154) and TYK2 (aa 871-1187) are expressed with an N-terminally fused GST-tag; GST (N); purchased Carna Biosciences, Inc; host or cells: baculovirus expression system
T1 sequence (P29597 871-1187): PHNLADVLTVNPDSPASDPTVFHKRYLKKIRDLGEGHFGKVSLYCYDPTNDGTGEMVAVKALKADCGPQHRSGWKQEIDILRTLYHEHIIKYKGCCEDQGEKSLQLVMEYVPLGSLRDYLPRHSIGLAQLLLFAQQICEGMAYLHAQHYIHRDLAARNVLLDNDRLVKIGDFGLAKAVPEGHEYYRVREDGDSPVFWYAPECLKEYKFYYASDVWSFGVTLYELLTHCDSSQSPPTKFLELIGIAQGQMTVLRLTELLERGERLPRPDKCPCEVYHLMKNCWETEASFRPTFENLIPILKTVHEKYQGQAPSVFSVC
How it was run: (§1)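 HTRF KinEASE TK format; 1 μM biotinylated peptide, Km ATP: 7 μM (JAK1, 10 mM MgCl2, 50 nM SEB), 4 μM (JAK2), 2 μM (JAK3), 13 μM (TYK2, 50 nM SEB); 5 mM MgCl2 for the latter three. RT 20-30 min, 0.75% DMSO final. Overnight detection, EC50.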

[2] = molecular target: T2, JAK2 (catalytic domain, His-tag) (Homo sapiens, UniProt O60674); assay: JAK kinase assay (HTRF, phosphorylation of TK substrate-biotin), JAK2; settings: ATP at Km (4 μM)
T2 construct: All four purified enzymes contain only the catalytic domain; His (N); purchased Carna Biosciences, Inc; host or cells: baculovirus expression system
T2 sequence (O60674 849-1124 limits assumed): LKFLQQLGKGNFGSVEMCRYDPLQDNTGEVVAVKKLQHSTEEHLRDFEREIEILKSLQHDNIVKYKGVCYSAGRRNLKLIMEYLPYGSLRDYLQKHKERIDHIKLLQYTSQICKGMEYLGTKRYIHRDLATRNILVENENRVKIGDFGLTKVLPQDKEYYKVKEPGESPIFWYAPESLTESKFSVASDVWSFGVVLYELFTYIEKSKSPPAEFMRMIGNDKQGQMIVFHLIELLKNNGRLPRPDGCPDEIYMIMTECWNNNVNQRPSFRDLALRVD
How it was run: as §1

[3] = molecular target: T3, JAK1 (aa 850-1154, catalytic domain, GST-tag) (Homo sapiens, UniProt P23458); assay: JAK kinase assay (HTRF, phosphorylation of TK substrate-biotin), JAK1; settings: ATP at Km (7 μM)
T3 construct: JAK1 (aa 850-1154) and TYK2 (aa 871-1187) are expressed with an N-terminally fused GST-tag; GST (N); purchased Carna Biosciences, Inc; host or cells: baculovirus expression system
T3 sequence (P23458 850-1154): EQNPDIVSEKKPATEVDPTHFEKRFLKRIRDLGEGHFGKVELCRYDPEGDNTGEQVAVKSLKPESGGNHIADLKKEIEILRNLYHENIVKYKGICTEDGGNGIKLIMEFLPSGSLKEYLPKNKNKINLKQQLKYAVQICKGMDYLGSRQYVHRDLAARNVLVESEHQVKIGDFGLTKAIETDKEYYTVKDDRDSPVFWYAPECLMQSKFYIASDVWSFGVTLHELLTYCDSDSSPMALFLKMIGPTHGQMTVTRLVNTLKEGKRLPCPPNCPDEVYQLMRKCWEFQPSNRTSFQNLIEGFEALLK
How it was run: as §1

[4] = molecular target: T4, JAK3 (catalytic domain, His-tag) (Homo sapiens, UniProt P52333); assay: JAK kinase assay (HTRF, phosphorylation of TK substrate-biotin), JAK3; settings: ATP at Km (2 μM)
T4 construct: All four purified enzymes contain only the catalytic domain; His (N); purchased Carna Biosciences, Inc; host or cells: baculovirus expression system
T4 sequence (P52333 822-1111 limits assumed): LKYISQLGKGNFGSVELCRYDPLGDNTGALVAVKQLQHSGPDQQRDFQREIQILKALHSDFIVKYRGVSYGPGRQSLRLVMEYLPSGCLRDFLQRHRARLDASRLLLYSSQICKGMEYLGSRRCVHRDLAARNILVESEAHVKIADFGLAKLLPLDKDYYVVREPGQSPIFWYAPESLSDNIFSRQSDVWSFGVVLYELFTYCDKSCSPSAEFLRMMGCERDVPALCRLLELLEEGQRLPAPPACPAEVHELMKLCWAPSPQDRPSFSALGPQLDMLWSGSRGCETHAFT
How it was run: as §1

[5] = HTRF assay, read-out: TYK2 kinase inhibitory activity (EC50 indicator)
[6] = HTRF assay, read-out: JAK2 kinase inhibitory activity (EC50 indicator)
[7] = HTRF assay, read-out: JAK1 kinase inhibitory activity (EC50 indicator)
[8] = HTRF assay, read-out: JAK3 kinase inhibitory activity (EC50 indicator)
[9] = read-out: TYK2 kinase inhibitory activity (EC50 indicator)
[10] = read-out: JAK2 kinase inhibitory activity (EC50 indicator)
[11] = read-out: JAK1 kinase inhibitory activity (EC50 indicator)
[12] = read-out: JAK3 kinase inhibitory activity (EC50 indicator)
[13] = HTRF assay, read-out: TYK2 kinase inhibitory activity (EC50)
[14] = HTRF assay, read-out: JAK2 kinase inhibitory activity (EC50)
[15] = HTRF assay, read-out: JAK1 kinase inhibitory activity (EC50)
[16] = HTRF assay, read-out: JAK3 kinase inhibitory activity (EC50)

Row | SMILES | EC50 [1, 5] | EC50 [2, 6] | EC50 [3, 7] | EC50 [4, 8] | EC50 [1, 9] | EC50 [2, 10] | EC50 [3, 11] | EC50 [4, 12] | other results
1 | N#Cc1cccc(C(=O)N2CCN(c3ccnc4[nH]ccc34)CC23CC3)c1 [Example 227, 3-[7-(1H-Pyrrolo[2,3-b]pyridin-4-yl)-4,7-diaza-spiro[2.5]octane-4-carbonyl]-benzonitrile] | > 0.5 µM | < 0.1 µM | < 0.1 µM | 0.1 to 0.5 µM |  |  |  |  | 
2 | COC(=O)c1cc2c(N3CCN(C(=O)Cc4ccc(CC#N)cc4)C4(CC4)C3)ncnc2[nH]1 [Example 122, 4-{4-[2-(4-Cyanomethyl-phenyl)-acetyl]-4,7-diaza-spiro[2.5]oct-7-yl}-7H-pyrrolo[2,3-d]pyrimidine-6-carboxylic acid methyl ester] |  |  |  |  | > 0.5 µM | > 0.5 µM | > 0.5 µM | > 0.5 µM | 
3 | N#Cc1ccc(CC(=S)N2CCN(c3ncnc4[nH]ccc34)CC23CC3)cc1 [Example 441, 4-{2-[7-(7H-Pyrrolo[2,3-d]pyrimidin-4-yl)-4,7-diaza-spiro[2.5]oct-4-yl]-2-thioxo-ethyl}-benzonitrile] |  |  |  |  |  |  |  |  | EC50 [1, 13]: < 0.1 µM; EC50 [2, 14]: < 0.1 µM; EC50 [3, 15]: < 0.1 µM; EC50 [4, 16]: < 0.1 µM
4 | Cc1c[nH]c2ncnc(N3CCN(C(=O)Cc4ccc(F)cc4)C4(CC4)C3)c12 [Example 330, 2-(4-Fluoro-phenyl)-1-[7-(5-methyl-7H-pyrrolo[2,3-d]pyrimidin-4-yl)-4,7-diaza-spiro[2.5]oct-4-yl]-ethanone] | > 0.5 µM | 0.1 to 0.5 µM | 0.1 to 0.5 µM | 0.1 to 0.5 µM |  |  |  |  | 
5 | Cc1c[nH]c2ncnc(N3CCN(C(=O)C4(C#N)CC4)C4(CC4)C3)c12 [Example 329, 1-[7-(5-Methyl-7H-pyrrolo[2,3-d]pyrimidin-4-yl)-4,7-diaza-spiro[2.5]octane-4-carbonyl]-cyclopropanecarbonitrile] | > 0.5 µM | > 0.5 µM | > 0.5 µM | > 0.5 µM |  |  |  |  | 
6 | N#Cc1ccc(C(=O)N2CCN(c3ncnc4[nH]ccc34)CC23CC3)c(F)c1 [Example 92, 3-Fluoro-4-[7-(7H-pyrrolo[2,3-d]pyrimidin-4-yl)-4,7-diaza-spiro[2.5]octane-4-carbonyl]-benzonitrile] |  |  |  |  | 0.1 to 0.5 µM | < 0.1 µM | < 0.1 µM | 0.1 to 0.5 µM | 
7 | NS(=O)(=O)c1cc(OCC(=O)N2C3CCC2CN(c2ncnc4[nH]ccc24)C3)ccc1Cl [Example 127, 2-Chloro-5-{2-oxo-2-[3-(7H-pyrrolo[2,3-d]pyrimidin-4-yl)-3,8-diaza-bicyclo[3.2.1]oct-8-yl]-ethoxy}-benzenesulfonamide] |  |  |  |  | > 0.5 µM | < 0.1 µM | < 0.1 µM | < 0.1 µM | 
8 | CS(=O)(=O)c1cc(C(=O)N2CCN(c3ncnc4[nH]ccc34)CC23CC3)ccc1F [Example 366, (4-Fluoro-3-methanesulfonyl-phenyl)-[7-(7H-pyrrolo[2,3-d]pyrimidin-4-yl)-4,7-diaza-spiro[2.5]oct-4-yl]-methanone] | > 0.5 µM | < 0.1 µM | < 0.1 µM | 0.1 to 0.5 µM |  |  |  |  | 
9 | NS(=O)(=O)c1ccc(C(=O)N2CCN(c3ncnc4[nH]ccc34)CC23CC3)cc1Cl [Example 103, 2-Chloro-4-[7-(7H-pyrrolo[2,3-d]pyrimidin-4-yl)-4,7-diaza-spiro[2.5]octane-4-carbonyl]-benzenesulfonamide] |  |  |  |  | < 0.1 µM | < 0.1 µM | < 0.1 µM | < 0.1 µM | 
10 | O=C1CC(C(=O)N2CCN(c3ncnc4[nH]ccc34)CC23CC3)c2ccccc21 (centres unmarked) [Example 126, 3-[7-(7H-Pyrrolo[2,3-d]pyrimidin-4-yl)-4,7-diaza-spiro[2.5]octane-4-carbonyl]-indan-1-one] |  |  |  |  | > 0.5 µM | < 0.1 µM | < 0.1 µM | 0.1 to 0.5 µM | 
11 | O=C(Cc1ccncc1)N1[C@@H]2CC[C@@H]1CN(c1ncnc3[nH]ccc13)C2 [Example 171, 2-Pyridin-4-yl-1-[3-(7H-pyrrolo[2,3-d]pyrimidin-4-yl)-3,8-diaza-bicyclo[3.2.1]oct-8-yl]-ethanone] |  |  |  |  | > 0.5 µM | 0.1 to 0.5 µM | 0.1 to 0.5 µM | > 0.5 µM | 
12 | O=C(NCCc1ccccc1)N1CCN(c2ncnc3[nH]ccc23)CC12CC2 [Example 445, 7-(7H-Pyrrolo[2,3-d]pyrimidin-4-yl)-4,7-diaza-spiro[2.5]octane-4-carboxylic acid phenethyl-amide] |  |  |  |  |  |  |  |  | EC50 [1, 13]: > 0.5 µM; EC50 [2, 14]: < 0.1 µM; EC50 [3, 15]: < 0.1 µM; EC50 [4, 16]: 0.1 to 0.5 µM
13 | N#CCCCC(=O)N1CCN(c2ncnc3[nH]cc(Cl)c23)CC12CC2 [Example 322, 5-[7-(5-Chloro-7H-pyrrolo[2,3-d]pyrimidin-4-yl)-4,7-diaza-spiro[2.5]oct-4-yl]-5-oxo-pentanenitrile] | > 0.5 µM | > 0.5 µM | > 0.5 µM | 0.1 to 0.5 µM |  |  |  |  | 
14 | O=C(c1ccc(S(=O)(=O)C2CCCC2)cc1)N1CCN(c2ncnc3[nH]ccc23)CC12CC2 [Example 407, (4-Cyclopentanesulfonyl-phenyl)-[7-(7H-pyrrolo[2,3-d]pyrimidin-4-yl)-4,7-diaza-spiro[2.5]oct-4-yl]-methanone] | > 0.5 µM | < 0.1 µM | < 0.1 µM | > 0.5 µM |  |  |  |  | 
15 | N#CCC(=O)N1CCN(c2ncnc3[nH]ccc23)CC12CC2 [Example 54, 3-Oxo-3-[7-(7H-pyrrolo[2,3-d]pyrimidin-4-yl)-4,7-diazaspiro[2.5]oct-4-yl]propionitrile] |  |  |  |  | > 0.5 µM | < 0.1 µM | < 0.1 µM | < 0.1 µM | 
16 | N#Cc1cccc(C(=O)N2CCN(c3ncnc4[nH]ccc34)CC23CC3)c1 [Example 44, 3-[7-(7H-Pyrrolo[2,3-d]pyrimidin-4-yl)-4,7-diazaspiro[2.5]octane-4-carbonyl]benzonitrile] |  |  |  |  | < 0.1 µM | < 0.1 µM | < 0.1 µM | < 0.1 µM | 
17 | O=C(c1cc2cc(F)ccc2[nH]1)N1C2CCC1CN(c1ncnc3[nH]ccc13)C2 [Example 136, (5-Fluoro-1H-indol-2-yl)-[3-(7H-pyrrolo[2,3-d]pyrimidin-4-yl)-3,8-diaza-bicyclo[3.2.1]oct-8-yl]-methanone] |  |  |  |  | 0.1 to 0.5 µM | < 0.1 µM | < 0.1 µM | < 0.1 µM | 
18 | N#Cc1ccc(CC(=O)N2CCN(c3ccnc4[nH]ccc34)CC23CC3)cc1 [Example 115, 4-{2-Oxo-2-[7-(1H-pyrrolo[2,3-b]pyridin-4-yl)-4,7-diaza-spiro[2.5]oct-4-yl]-ethyl}-benzonitrile] |  |  |  |  | > 0.5 µM | < 0.1 µM | < 0.1 µM | < 0.1 µM | 
19 | CS(=O)(=O)CCC(=O)N1CCN(c2ncnc3[nH]ccc23)CC12CC2 [Example 37, 3-Methanesulfonyl-1-[7-(7H-pyrrolo[2,3-d]pyrimidin-4-yl)-4,7-diazaspiro[2.5]oct-4-yl]propan-1-one] |  |  |  |  | > 0.5 µM | < 0.1 µM | < 0.1 µM | 0.1 to 0.5 µM | 
20 | O=C(Cc1ccccc1)N1CCN(c2ncnc3[nH]ccc23)CC12CC2 [Example 152, 2-Phenyl-1-[7-(7H-pyrrolo[2,3-d]pyrimidin-4-yl)-4,7-diaza-spiro[2.5]oct-4-yl]-ethanone] |  |  |  |  | 0.1 to 0.5 µM | < 0.1 µM | < 0.1 µM | < 0.1 µM | 
21 | CS(=O)(=O)c1ccc(CC(=O)N2C3CCC2CN(c2ncnc4[nH]ccc24)C3)cc1 [Example 134, 2-(4-Methanesulfonyl-phenyl)-1-[3-(7H-pyrrolo[2,3-d]pyrimidin-4-yl)-3,8-diaza-bicyclo[3.2.1]oct-8-yl]-ethanone] |  |  |  |  | > 0.5 µM | 0.1 to 0.5 µM | 0.1 to 0.5 µM | > 0.5 µM | 
22 | COCCC(=O)N1CCN(c2ncnc3[nH]ccc23)CC12CC2 [Example 456, 3-Methoxy-1-[7-(7H-pyrrolo[2,3-d]pyrimidin-4-yl)-4,7-diaza-spiro[2.5]oct-4-yl]-propan-1-one] |  |  |  |  |  |  |  |  | EC50 [1, 13]: > 0.5 µM; EC50 [2, 14]: 0.1 to 0.5 µM; EC50 [3, 15]: 0.1 to 0.5 µM; EC50 [4, 16]: 0.1 to 0.5 µM
23 | Cc1c[nH]c2ncnc(N3CCN(C(=O)Cc4ccc(C#N)cc4)C4(CC4)C3)c12 [Example 334, 4-{2-[7-(5-Methyl-7H-pyrrolo[2,3-d]pyrimidin-4-yl)-4,7-diaza-spiro[2.5]oct-4-yl]-2-oxo-ethyl}-benzonitrile] | > 0.5 µM | < 0.1 µM | 0.1 to 0.5 µM | < 0.1 µM |  |  |  |  | 
